Assays:
β2AR [1] = target: T1, β2AR (Homo sapiens, UniProt P07550); test: β-arrestin-2 recruitment assay (PathHunter enzyme fragment complementation), norepinephrine-stimulated; type: cell-based; settings: for negative allosteric effect on norepinephrine-stimulated β-arrestin 2 recruitment (in words): analogs tested at 10 μM and 30 μM compared to norepinephrine alone (FIG. 9); for inhibition at 30 µM: arrestin recruitment stimulated by norepinephrine after preincubation with 30 μM of the test compound; for inhibition at 30 µM / inhibition at 10 µM: read-out: attenuation of Emax (maximum efficacy of norepinephrine); for inhibition at 10 µM: arrestin recruitment stimulated by norepinephrine, attenuating effect at 10 μM of the test compound
T1 construct: host or cells: HEK293 cells stably expressing (EA)-β-arrestin-2
Method: (§1) β-Arrestin-2 Recruitment Assay. Determination of β-arrestin-2 recruitment was performed applying the PathHunter assay (DiscoverX, Birmingham, U.K.) which is based on fragment complementation of β-galactosidase in HEK293 cells stably expressing (EA)-β-arrestin-2 and being transiently transfected with a receptor tagged to the PK fragment. In general, cells were transfected employing Mirus TransIT-293 (peqlab, Erlangen, Germany) and incubated in DMEM/F12 medium (Life Technologies, Darmstadt, Germany) at 37° C. and 5% of CO2. After 24 hrs cells were detached with Versene (Life Technologies) and transferred into 384-well plates (white plate, transparent bottom, Greiner Bio-One, Frickenhausen, Germany) at a density of 5000 cells/well using the medium CP4 Reagent (DiscoverX). After further 24 hrs of incubation test compounds dissolved in PBS were added to the cells at a final volume of 25 μL and incubated at 37° C. for a distinct time which was optimized for each receptor (details are summarized in the supporting information). Determination of β-arrestin-2 recruitment was started by adding detection mix, incubation at room temperature for 60 min and measuring chemoluminescence with a Clariostar plate reader (BMG, Ortenberg, Germany). For measuring allosteric effects the modulator was preincubated with the cells at a distinct concentration for 30 min followed by the addition of reference agonist. Data analysis of functional experiments were performed by normalizing the raw data relative to basal activity (0%) and the maximum effect of the reference agonist (100%). Normalized curves from three to seven individual experiments each done as duplicate were analyzed by non-linear regression applying the algorithms in Prism 6.0 (GraphPad, San Diego, Calif.) to get dose-response curves representing average EC50 and Emax value.
β-Arrestin-2 Recruitment Assay. β-Arrestin-2 recruitment was performed applying the fragment complementation assay PathHunter (DiscoverX) with HEK293 cells stably expressing (EA)-β-arrestin-2. The appropriate receptor was transiently transfected when using a specific pCMV vectors with the PK-tag located at different distances downstream of the C-terminus of the inserted receptor (PK1, PK2 and PK-ARMS2, purchased from DiscoverX, Birmingham, UK). ADRB2-PK encoding the human β2AR was purchased from DiscoverX, while all other vectors with related GPCRs were engineered by inserting the DNA of the appropriate receptor in frame into the different PK constructs further excluding the stop codon. Mutants of the β2AR were done applying polymerase chain reaction with appropriate primers.

β1AR = target: T2, β1AR (Mus musculus, UniProt P34971); test: β-arrestin-2 recruitment assay, subtype selectivity; type: cell-based
T2 construct: expressed in transfected cells; host or cells: HEK293 cells stably expressing (EA)-β-arrestin-2
Method: as §1
(§2) β-Arrestin-2 Recruitment Assay. β-Arrestin-2 recruitment was performed applying the fragment complementation assay PathHunter (DiscoverX) with HEK293 cells stably expressing (EA)-β-arrestin-2. […]

[2] = test system: other Family A GPCRs (α2AAR, 5-HT1AR, M2AChR, D2longDR, PAR2, NTS1R, μOR, κOR, δOR); test: as above; type: cell-based
Method: as §1, §2

α1AAR = target: T3, α1AAR (Homo sapiens, UniProt P35348); test: as above; type: cell-based
T3 construct: expressed in transfected cells; host or cells: HEK293 cells stably expressing (EA)-β-arrestin-2
T3 sequence (P35348 1-466): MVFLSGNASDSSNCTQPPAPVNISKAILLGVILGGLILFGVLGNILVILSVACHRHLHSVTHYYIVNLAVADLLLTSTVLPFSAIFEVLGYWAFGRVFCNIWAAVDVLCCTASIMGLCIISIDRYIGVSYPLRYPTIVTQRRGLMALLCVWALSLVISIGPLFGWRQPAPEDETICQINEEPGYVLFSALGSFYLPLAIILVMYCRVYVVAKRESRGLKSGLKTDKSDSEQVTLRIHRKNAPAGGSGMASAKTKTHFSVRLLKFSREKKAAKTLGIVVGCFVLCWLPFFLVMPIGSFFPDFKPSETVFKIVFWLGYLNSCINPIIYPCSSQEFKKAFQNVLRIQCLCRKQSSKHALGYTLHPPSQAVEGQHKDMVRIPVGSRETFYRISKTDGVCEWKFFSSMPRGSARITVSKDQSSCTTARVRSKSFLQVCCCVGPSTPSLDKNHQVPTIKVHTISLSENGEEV
Method: as §1, §2

[3] = test system: β2AR E122^3.41 mutants (E122L, E122Q, E122R); test: Radioligand binding assay with [3H]DHAP, E122 mutants; set-up: species or system human; settings: all of the mutants, relative to wild type
Method: Membranes prepared from Sf9 cells infected with baculoviruses expressing β2AR (wt) or E122 mutants in the absence or presence of co-expressed Gs heterotrimer were assessed by radioligand binding with [^3H]DHAP. […] Ki's were determined using Graphpad (Prism, San Diego) using the Kd of [^3H]DHAP specific for β2AR (wt) and each mutant, according to the Cheng-Prusoff equation. Values for high affinity agonist site (Khigh) and low affinity site (Klow) from membranes prepared from β2AR (wt) or mutants co-infected with Gs heterotrimer were determined by non-linear regression fitting (2-site) using Kd values of [^3H]DHAP, as above (Graphpad, San Diego).
Radioligand binding assay. […] Samples were taken at varying time points, filtered and washed as described below to remove free [^3H]formoterol. For [^3H]DHAP saturation isotherms of β2AR and mutants, membranes were incubated with varying concentrations of [^3H]DHAP and filtered as described below. Samples were subject to rapid filtration through GF/B membranes and rinsed with ice cold binding buffer to remove free [^3H]probe. Filter plates were dried before adding Microscint 0 and counting bound [^3H]probe using a Packard TopCount. All data were analyzed using Graphpad (Prism, San Diego Calif.).

β2AR [4] = target: T1, β2AR; test: cAMP accumulation assay (FRET-Epac sensor); type: cell-based
Method: cAMP accumulation assays. Intact cell cAMP accumulation was measured using the FRET-epac sensor in stable HEK293-Epac cells endogenously expressing β2AR or in CHO cells co-transfected with Epac and β2AR or the mutants. Cells were harvested with lifting buffer (20 mM HEPES, pH 7.4, 150 mM NaCl and 0.68 mM EDTA), centrifuged and resuspended in HBSS-HEPES (Hank's Balanced Salt Solution plus 20 mM HEPES, pH 7.4) containing 0-150 μM modulator or vehicle (for a final assay concentration of 0-100 μM). This cell suspension (100 μL) was pipetted into the wells of a 96 well plate (black with clear bottom). After 20 min in the dark at 37° C., 50 μL of HBSS-HEPES buffer at 37° C. containing 1B MX (1 mM final), ascorbic acid (1 mM final), and norepinephrine or epinephrine (0-100 μM final) was added. The CFP/YFP ratio of the Epac-cAMP FRET sensor was immediately measured for 15 min using wavelengths of 435 nm for excitation with 485 nm and 530 nm for emission using a SpectraMax M5 (Molecular Devices).

T1 sequence (P07550 whole entry, the tested form may be a part): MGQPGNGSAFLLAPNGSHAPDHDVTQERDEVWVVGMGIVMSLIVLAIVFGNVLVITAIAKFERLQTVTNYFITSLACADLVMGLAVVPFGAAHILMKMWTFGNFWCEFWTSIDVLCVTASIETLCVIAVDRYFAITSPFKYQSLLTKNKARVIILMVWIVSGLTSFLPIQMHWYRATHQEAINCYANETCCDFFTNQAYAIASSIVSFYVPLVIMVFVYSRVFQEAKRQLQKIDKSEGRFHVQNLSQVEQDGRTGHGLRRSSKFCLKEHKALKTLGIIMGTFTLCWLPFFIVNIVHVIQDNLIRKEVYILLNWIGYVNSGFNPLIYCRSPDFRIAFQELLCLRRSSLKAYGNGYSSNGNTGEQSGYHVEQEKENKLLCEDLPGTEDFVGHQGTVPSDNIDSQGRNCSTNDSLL
T2 sequence (P34971 whole entry): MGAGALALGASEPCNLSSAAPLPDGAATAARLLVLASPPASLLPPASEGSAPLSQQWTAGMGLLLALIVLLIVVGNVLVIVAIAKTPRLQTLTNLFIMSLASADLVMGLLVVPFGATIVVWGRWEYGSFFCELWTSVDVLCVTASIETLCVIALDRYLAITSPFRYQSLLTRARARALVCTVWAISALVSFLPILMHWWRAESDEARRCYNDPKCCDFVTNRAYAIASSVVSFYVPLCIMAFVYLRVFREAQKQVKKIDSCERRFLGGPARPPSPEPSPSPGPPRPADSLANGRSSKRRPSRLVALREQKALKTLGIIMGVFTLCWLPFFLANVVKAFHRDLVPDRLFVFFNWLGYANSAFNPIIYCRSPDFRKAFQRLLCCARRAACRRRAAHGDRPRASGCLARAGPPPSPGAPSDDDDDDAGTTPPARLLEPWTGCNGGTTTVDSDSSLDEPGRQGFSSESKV

Row | negative allosteric effect on norepinephrine-stimulated β-arrestin 2 recruitment (in words) (β2AR [1]) | inhibition at 30 µM (β2AR [1]) [%] | SMILES | other results
1 | reduced allosteric modulation | 31 to 70 | Nc1nc(Nc2ccccc2)nc2cccc(Br)c12 [AS094, 5-Bromo-N^2-phenylquinazoline-2,4-diamine] | –
2 | – | 31 to 70 | Nc1nc(Nc2ccccc2)nc2cccc(Cl)c12 [AS098, 5-Chloro-N^2-phenylquinazoline-2,4-diamine] | –
3 | – | < 30 | Nc1nc(Nc2ccc(S(N)(=O)=O)cc2)nc2ccccc12 [AS197, 4-((4-Aminoquinazolin-2-yl)amino)benzenesulfonamide] | –
4 | – | < 30 | CNC(=O)c1ccc(Nc2nc(N)c3ccccc3n2)cc1 [AS198, 4-((4-Aminoquinazolin-2-yl)amino)-N-methylbenzamide] | –
5 | – | < 30 | COC(=O)c1ccc(Nc2nc(N)c3c(F)cccc3n2)c(O)c1 [AS202, Methyl 4-((4-amino-5-fluoroquinazolin-2-yl)amino)-3-hydroxybenzoate] | –
6 | – | < 30 | COC(=O)c1ccc(Nc2nc(N)c3c(Cl)cccc3n2)cc1 [AS228, Methyl 4-((4-amino-5-chloroquinazolin-2-yl)amino)benzoate] | –
7 | reduced allosteric modulation | 31 to 70 | Nc1nc(Nc2ccccc2)nc2c(Br)cccc12 [AS241, 8-Bromo-N^2-phenylquinazoline-2,4-diamine] | –
8 | – | 31 to 70 | Nc1nc(Nc2ccccc2)nc2c(Cl)cccc12 [AS328, 8-Chloro-N^2-phenylquinazoline-2,4-diamine] | –
9 | – | – | Nc1nc(Nc2ccccc2)nc2ccc(Br)cc12 [AS408, 6-Bromo-N^2-phenylquinazoline-2,4-diamine] | potency at β1AR relative to β2AR (β1AR): small reduction in the potency; allosteric activity at the other GPCRs tested [2]: no allosteric activity; allosteric activity at α1AR (α1AAR): weak NAM; effect of AS408 on agonist binding affinity at E122 mutants [3]: reduced relative to the wild-type receptor
10 | reduced allosteric modulation | 31 to 70 | Nc1nc(Nc2ccccc2)nc2cc(Br)ccc12 [AS436, 7-Bromo-N^2-phenylquinazoline-2,4-diamine] | –
11 | reduces the negative allosteric effect | – | CCCNc1nc(N)c2ccccc2n1 [BRAC1-5] | –
12 | Reduction of the allosteric effect | – | Nc1nc(Nc2cccc(O)c2)nc2ccccc12 [BRAC1-23] | –
13 | weak, negative allosteric regulation | – | Nc1nc(Nc2ccccc2)nc2ccccc12 [BRAC1] | negative allosteric regulation of cAMP accumulation (in words) (β2AR [4]): weak, negative allosteric regulation
14 | activity comparable to Br | 71 to 100 | Nc1nc(Nc2ccccc2)nc2ccc(Cl)cc12 [DD282, 6-Chloro-N^2-phenylquinazoline-2,4-diamine] | –
15 | – | < 30 | Nc1nc(Nc2ccccc2CO)nc2ccc(Br)cc12 [DD283, 6-Bromo-N^2-(2-hydroxymethyl)phenylquinazoline-2,4-diamine] | –
16 | less potent | < 30 | Nc1nc(Nc2ccccc2)nc2ccc(F)cc12 [DD284, 6-Fluoro-N^2-phenylquinazoline-2,4-diamine] | –
17 | attenuated negative allosteric effect | 31 to 70 | Brc1ccc2nc(Nc3ccccc3)ncc2c1 [DD288, 6-Bromo-/V-phenylquinazolin-2-amine] | –
18 | – | – | Nc1nc(Nc2ccc3ccccc3c2)nc2ccc(Br)cc12 [DD290, 6-bromo-N2-(naphthalen-2-yl)quinazoline-2,4-diamine] | inhibition at 10 µM (β2AR [1]): < 30%
19 | – | < 30 | Nc1nc(Nc2cccc(CCC(=O)O)c2)nc2ccc(Br)cc12 [DD291, 3-(3-((4-amino-6-bromoquinazolin-2-yl)amino)phenyl)propanoic acid] | –
20 | activity comparable to Br | 71 to 100 | Nc1nc(Nc2ccccc2)nc2ccc(C(F)(F)F)cc12 [DD293, 6-Trifluoromethyl-N^2-phenylquinazoline-2,4-diamine] | –
21 | – | < 30 | Nc1nc(Nc2cccc(CCC(=O)OCC(O)CO)c2)nc2ccc(Br)cc12 (stereo not drawn) [DD294, 2,3-dihydroxypropyl-(3-((4-amino-6-bromoquinazolin-2-yl)amino)phenyl)propanoate] | –
22 | – | – | COC(=O)c1ccc(Nc2nc(N)c3ccccc3n2)c(O)c1 [JT11, Methyl 4-((4-aminoquinazolin-2-yl)amino)-3-hydroxybenzoate] | inhibition at 10 µM (β2AR [1]): < 30%
23 | – | < 30 | Nc1nc(Nc2ccccc2O)nc2cccc(Cl)c12 [JT12, 2-((4-Amino-5-chloroquinazolin-2-yl)amino)phenol] | –
24 | – | 31 to 70 | CC(C)c1ccc2nc(Nc3ccccc3)nc(N)c2c1 [ST238, 6-Isopropyl-N^2-phenylquinazoline-2,4-diamine] | –
25 | activity comparable to Br | 71 to 100 | Nc1nc(Nc2ccccc2)nc2ccc(I)cc12 [ST239, 6-Iodo-N^2-phenylquinazoline-2,4-diamine] | –

Row | SMILES | negative allosteric effect on norepinephrine-stimulated β-arrestin 2 recruitment (in words) (β2AR [1]) | inhibition at 30 µM (β2AR [1]) [%] | other results
26 | Nc1nc(Nc2ccccc2)nc2ccc(-c3ccccc3)cc12 [ST240, N^2,6-Diphenylquinazoline-2,4-diamine] | further disruption of the negative allosteric effect | 31 to 70 | –

— patent US20210353626A1, “BETA-ADRENERGIC RECEPTOR ALLOSTERIC MODULATORS” (THE REGENTS OF THE UNIVERSITY OF CALIFORNIA, priority 2018, published 2021)
